The values that follow come from patent US12559492B2, “BRAF degraders” (C4 Therapeutics, Inc., priority 2020, dated 2026).

In this assay the target is BRAF^V600E protein (Homo sapiens, UniProt P15056, V600E). The assay is described as follows: HiBiT cellular BRAF V600E degradation assay. Conditions: 24 h incubation; for DC50: A375.10 cells (HiBiT tag knocked in at N-terminal of BRAF V600E), concentration at which 50% of total cellular BRAF V600E is degraded; for Emax: read-out: HiBit 24 h Emax. Format: cell-based.
Chain of BRAF^V600E protein (P15056 whole entry V600E): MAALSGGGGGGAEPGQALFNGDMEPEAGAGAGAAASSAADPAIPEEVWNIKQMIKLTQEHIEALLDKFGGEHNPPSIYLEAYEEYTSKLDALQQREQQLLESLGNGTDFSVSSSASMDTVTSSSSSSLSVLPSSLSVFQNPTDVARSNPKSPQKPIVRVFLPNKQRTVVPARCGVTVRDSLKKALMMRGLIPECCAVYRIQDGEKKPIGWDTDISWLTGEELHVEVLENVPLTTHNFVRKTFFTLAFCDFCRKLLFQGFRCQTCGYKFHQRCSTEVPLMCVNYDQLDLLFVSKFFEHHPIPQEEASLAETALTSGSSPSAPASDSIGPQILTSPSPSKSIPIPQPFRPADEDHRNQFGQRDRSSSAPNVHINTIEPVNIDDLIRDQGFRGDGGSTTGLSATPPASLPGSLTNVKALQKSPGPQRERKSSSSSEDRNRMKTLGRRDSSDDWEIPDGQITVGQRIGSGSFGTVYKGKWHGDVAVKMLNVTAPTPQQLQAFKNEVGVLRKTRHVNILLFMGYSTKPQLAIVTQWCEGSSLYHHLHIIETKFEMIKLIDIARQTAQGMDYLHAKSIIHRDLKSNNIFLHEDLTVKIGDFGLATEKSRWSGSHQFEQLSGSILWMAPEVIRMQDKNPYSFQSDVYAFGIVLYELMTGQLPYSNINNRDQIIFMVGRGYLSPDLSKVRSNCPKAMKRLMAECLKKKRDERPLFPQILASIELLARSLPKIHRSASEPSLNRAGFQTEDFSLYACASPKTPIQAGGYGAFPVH
The mark [1] stands for this setting: A375.10 cells, Emax = amount of residual protein remaining in the cell after compound treatment.

`CCN(C)S(=O)(=O)Nc1ccc(F)c(C(=O)c2c[nH]c3ncc(-c4ccc(N5CCC(NCC(=O)N6CCC(c7ccc(OC8CCC(=O)NC8=O)cc7)CC6)CC5)nc4)cc23)c1F` (stereo not shown) [Example A109, 5-[6-[4-[[2-[4-[4-(2,6-Dioxopiperidin-3-yl)oxyphenyl]piperidin-1-yl]-2-oxoethyl]amino]piperidin-1-yl]pyridin-3-yl]-3-[3-[[ethyl(methyl)sulfamoyl]amino]-2,6-difluorobenzoyl]-1H-pyrrolo[2,3-b]pyridine; formic acid]: half-maximal degradation (DC50) was put at 44 nM. Also, the Emax under setting [1] came out at 13%.

Regarding `CCN(C)S(=O)(=O)Nc1ccc(F)c(C(=O)c2c[nH]c3ncc(-c4ccc(N5CCC(NCC(=O)N6CCC(c7ccc(NC8CCC(=O)NC8=O)cc7)CC6)CC5)nc4)cc23)c1F` (stereo not shown) [Example A110, 5-[6-[4-[[2-[4-[4-[(2,6-Dioxopiperidin-3-yl)amino]phenyl]piperidin-1-yl]-2-oxoethyl]amino]piperidin-1-yl]pyridin-3-yl]-3-[3-[[ethyl(methyl)sulfamoyl]amino]-2,6-difluorobenzoyl]-1H-pyrrolo[2,3-b]pyridine;formic acid], it took 13 nM to reach half-maximal degradation (DC50). Further, the Emax under setting [1] turned out to be 13%.

`CCN(C)S(=O)(=O)Nc1ccc(F)c(C(=O)c2c[nH]c3ncc(-c4cnc(N5CCC(CC(=O)N6CCC(c7ccc(NC8CCC(=O)NC8=O)cc7)CC6)CC5)nc4)cc23)c1F` (stereo not shown) [Example A112, 5-[2-[4-[2-[4-[4-[(2,6-Dioxopiperidin-3-yl)amino]phenyl]piperidin-1-yl]-2-oxoethyl]piperidin-1-yl]pyrimidin-5-yl]-3-[3-[[ethyl(methyl)sulfamoyl]amino]-2,6-difluorobenzoyl]-1H-pyrrolo[2,3-b]pyridine] had a DC50 of 15 nM. Further, the Emax under setting [1] worked out at 15%.

`CCN(C)S(=O)(=O)Nc1ccc(F)c(C(=O)c2c[nH]c3ncc(-c4cnc(N5CCC(CC(=O)N6CCC(c7ccc(N8CCC(=O)NC8=O)cc7)CC6)CC5)nc4)cc23)c1F` [Example A113, 5-[2-[4-[2-[4-[4-(2,4-Dioxo-1,3-diazinan-1-yl)phenyl]piperidin-1-yl]-2-oxoethyl]piperidin-1-yl]pyrimidin-5-yl]-3-[3-[[ethyl(methyl)sulfamoyl]amino]-2,6-difluorobenzoyl]-1H-pyrrolo[2,3-b]pyridine]: the DC50 is 53 nM. The Emax under setting [1] worked out at 33%.

Compound `CCN(C)S(=O)(=O)Nc1cccc(C(=O)c2c[nH]c3ncc(-c4ccc(N5CCN(C(=O)CN6CCC(c7ccc(NC8CCC(=O)NC8=O)cc7)CC6)CC5)nc4)cc23)c1Br` (stereo not shown) [Example A114, 3-[2-Bromo-3-[[ethyl(methyl)sulfamoyl]amino]benzoyl]-5-[6-[4-[2-[4-[4-[(2,6-dioxopiperidin-3-yl)amino]phenyl]piperidin-1-yl]acetyl]piperazin-1-yl]pyridin-3-yl]-1H-pyrrolo[2,3-b]pyridine] gave a 50% degradation concentration (DC50) of 8.83 nM. Under setting [1], the Emax was found to be 7.68%.

In turn, `O=C1CCC(Oc2ccc(C3CCN(CC(=O)N4CC5(C4)CN(c4ccc(-c6cnc7[nH]cc(C(=O)c8c(F)ccc(NS(=O)(=O)N9CC[C@@H](F)C9)c8F)c7c6)cn4)C5)CC3)cc2)C(=O)N1` (stereo partly drawn) [Example A115, (3R)—N-[3-[5-[6-[2-[2-[4-[4-(2,6-dioxopiperidin-3-yl)oxyphenyl]piperidin-1-yl]acetyl]-2,6-diazaspiro[3.3]heptan-6-yl]pyridin-3-yl]-1H-pyrrolo[2,3-b]pyridine-3-carbonyl]-2,4-difluorophenyl]-3-fluoropyrrolidine-1-sulfonamide] yielded a 50% degradation concentration (DC50) of 204 nM. Further, the Emax under setting [1] was 15%.

Compound `O=C1CCC(Oc2ccc(C3CCN(CC(=O)N4CC5(C4)CN(c4ccc(-c6cnc7[nH]cc(C(=O)c8c(F)ccc(NS(=O)(=O)N9CCCC9)c8F)c7c6)cc4)C5)CC3)cc2)C(=O)N1` (stereo not shown) [Example A116, N-[3-[5-[4-[2-[2-[4-[4-(2,6-Dioxopiperidin-3-yl)oxyphenyl]piperidin-1-yl]acetyl]-2,6-diazaspiro[3.3]heptan-6-yl]phenyl]-1H-pyrrolo[2,3-b]pyridine-3-carbonyl]-2,4-difluorophenyl]pyrrolidine-1-sulfonamide] had a half-maximal degradation concentration (DC50) of 26 nM. For the same compound, the maximum response (Emax) under setting [1] was 8%.

As to `O=C(c1c(F)ccc(NS(=O)(=O)N2CCCC2)c1F)c1c[nH]c2ncc(-c3ccc(N4CC5(CN(C(=O)CN6CCC(c7ccc(NC89CC(C8)C(=O)NC9=O)cc7)CC6)C5)C4)cc3)cc12` [Example A117, N-[3-[5-[4-[2-[2-[4-[4-[(2,4-Dioxo-3-azabicyclo[3.1.1]heptan-1-yl)amino]phenyl]piperidin-1-yl]acetyl]-2,6-diazaspiro[3.3]heptan-6-yl]phenyl]-1H-pyrrolo[2,3-b]pyridine-3-carbonyl]-2,4-difluorophenyl]pyrrolidine-1-sulfonamide], the DC50 is 192 nM. Also, the maximum response (Emax) under setting [1] turned out to be 24%.

Take `O=C1CCC(c2ccc(C3CCN(CC(=O)N4CC5(C4)CN(c4ncc(-c6cnc7[nH]cc(C(=O)c8c(F)ccc(NS(=O)(=O)N9CCCC9)c8F)c7c6)cn4)C5)CC3)cc2)C(=O)N1` (stereo not shown) [Example A118, N-[3-[5-[2-[2-[2-[4-[4-(2,6-Dioxopiperidin-3-yl)phenyl]piperidin-1-yl]acetyl]-2,6-diazaspiro[3.3]heptan-6-yl]pyrimidin-5-yl]-1H-pyrrolo[2,3-b]pyridine-3-carbonyl]-2,4-difluorophenyl]pyrrolidine-1-sulfonamide]: half-maximal degradation (DC50) was put at 29 nM. Moreover, the Emax under setting [1] worked out at 11%.

Turning to `O=C1CCC(Oc2ccc(C3CCN(CC(=O)N4CC5(C4)CN(c4ncc(-c6cnc7[nH]cc(C(=O)c8c(F)ccc(NS(=O)(=O)N9CCCC9)c8F)c7c6)cn4)C5)CC3)cc2)C(=O)N1` (stereo not shown) [Example A119, N-[3-[5-[2-[2-[2-[4-[4-(2,6-Dioxopiperidin-3-yl)oxyphenyl]piperidin-1-yl]acetyl]-2,6-diazaspiro[3.3]heptan-6-yl]pyrimidin-5-yl]-1H-pyrrolo[2,3-b]pyridine-3-carbonyl]-2,4-difluorophenyl]pyrrolidine-1-sulfonamide], half-maximal degradation (DC50) was put at 47 nM. In addition, the maximal effect (Emax) under setting [1] came out at 12%.

For the compound `O=C1CCC(Nc2ccc(C3CCN(CC(=O)N4CC5(C4)CN(c4ncc(-c6cnc7[nH]cc(C(=O)c8c(F)ccc(NS(=O)(=O)N9CCCC9)c8F)c7c6)cn4)C5)CC3)cc2)C(=O)N1` (stereo not shown) [Example A120, N-[3-[5-[2-[2-[2-[4-[4-[(2,6-Dioxopiperidin-3-yl)amino]phenyl]piperidin-1-yl]acetyl]-2,6-diazaspiro[3.3]heptan-6-yl]pyrimidin-5-yl]-1H-pyrrolo[2,3-b]pyridine-3-carbonyl]-2,4-difluorophenyl]pyrrolidine-1-sulfonamide], the 50% degradation concentration (DC50) is 8 nM. The maximal response (Emax) under setting [1] stood at 8%.

For the compound `CCN(C)S(=O)(=O)Nc1ccc(F)c(C(=O)c2c[nH]c3ncc(-c4ccc(N5CCN(C(=O)CN6CCC(c7ccc(O[C@H]8CCC(=O)NC8=O)cc7)CC6)CC5)nc4)cc23)c1F` [Example A121, 5-[6-[4-[2-[4-[4-[(3S)-2,6-Dioxopiperidin-3-yl]oxyphenyl]piperidin-1-yl]acetyl]piperazin-1-yl]pyridin-3-yl]-3-[3-[[ethyl(methyl)sulfamoyl]amino]-2,6-difluorobenzoyl]-1H-pyrrolo[2,3-b]pyridine], it took 12 nM to reach half-maximal degradation (DC50). Under setting [1], the maximal effect (Emax) came out at 8%.

In turn, `CCN(C)S(=O)(=O)Nc1ccc(F)c(C(=O)c2c[nH]c3ncc(-c4ccc(N5CCN(C(=O)CN6CCC(c7ccc(O[C@@H]8CCC(=O)NC8=O)cc7)CC6)CC5)nc4)cc23)c1F` [Example A122, 5-[6-[4-[2-[4-[4-[(3R)-2,6-Dioxopiperidin-3-yl]oxyphenyl]piperidin-1-yl]acetyl]piperazin-1-yl]pyridin-3-yl]-3-[3-[[ethyl(methyl)sulfamoyl]amino]-2,6-difluorobenzoyl]-1H-pyrrolo[2,3-b]pyridine] showed a DC50 of 32 nM. The Emax under setting [1] stood at 9%.

In the case of `CCN(C)S(=O)(=O)Nc1ccc(F)c(C(=O)c2c[nH]c3ncc(-c4cnc(N5CCN(C(=O)NC6CCN(c7ccc(NC8CCC(=O)NC8=O)cc7F)CC6)CC5)nc4)cc23)c1F.O=C(O)C(F)(F)F` (stereo not shown) [Example A123, N-[1-[4-[(2,6-Dioxopiperidin-3-yl)amino]-2-fluorophenyl]piperidin-4-yl]-4-[5-[3-[3-[[ethyl(methyl)sulfamoyl]amino]-2,6-difluorobenzoyl]-1H-pyrrolo[2,3-b]pyridin-5-yl]pyrimidin-2-yl]piperazine-1-carboxamide; 2,2,2-trifluoroacetic acid], the DC50 stood at 10 nM. Moreover, the “HiBit 24 h Emax” value under setting [1] was found to be 8%.

A word on the DC50: it is the concentration giving 50% degradation. Lower therefore signals a more potent degrader. Usually Emax stands for the maximal effect, on the per cent scale that the assay sets.
